Values of other authors, collected in patent US20070014831A1, “Biodegradable occlusive device with moisture memory” (priority 2005, published 2007).

Key:
[1] = J Biomater Sci Polymer Edn 1999;10:63-78
[2] = in vivo
[3] = tested on: tissue culture

Row | glutaraldehyde concentration used to crosslink materials above which a persistent foreign-body reaction occurred [2] | Structure (SMILES) | cytotoxicity compared with glutaraldehyde [1] | concentration at which cytotoxic [3] | concentration at which cytotoxic in tissue culture ([3]; in tissue culture, as low as) [ppm]
1 |  | COC(=O)C1=CO[C@@H](O)[C@@H]2C(CO)=CC[C@H]12 [Genipin] | significantly less cytotoxic than glutaraldehyde |  | 
2 | above 0.05% | O=CCCCC=O [glutaraldehyde] |  | 10-25 ppm | ≥ 3
